In patent US6555698B1, “Chemiluminescent substrates for neuraminidase, assays for detection of neuraminidase and kits therefor” (Tropix, Inc., priority 1998, dated 2003):
Like-named read-outs stand apart in the source and are kept apart here.

Key:
Type in all cases: biochemical
Oxford sialidase [1] = assay: Turner luminometer assay, incubation with Oxford sialidase at pH 5.5, then AMP pH 10 injection (Experiments 1-3)
Description: Next, 0.2 units of Oxford Enzyme were diluted with 400 microliters of […]. 200 microliters of the enzyme (0.1 units) were then treated with 10 microliters of the dioxetane stock and incubated at 37° C. for 15 minutes. The solution was then placed in a Turner luminometer. Light was detected at a constant 80 RLU at a pH of 5.5. All Turner readings were calibrated to 31.5° C.
5 microliters of the dioxetane stock prepared in Experiment 1 was added to 0.05 units of Oxford sialidase in 200 microliters of the pH 5.5 buffer. The solution (approximately a 110 micromolar substrate) was incubated at 37° C. for 15 minutes. The solution was then placed in a Turner luminometer, and steady light emission at about 55 RLU was noted (see FIG. 6). Next, 400 microliters of AMP pH 10 buffer was injected to produce an off-scale light spike (i.e., greater than 10,000 RLU).
Experiment 2 was repeated with a 110 micromolar substrate in the presence of 0.025 units of the enzyme. FIG. 7 illustrates that at a pH of 5.5, the light level obtained (56 RLU) was similar to that obtained in Experiment 2. […] Next, an additional 400 microliters of the AMP pH 10 buffer was added, which produced a light peak at 8860 RLU and similar decay kinetics as in Experiment 2.

Oxford sialidase [2] = assay: One step chemiluminescence at pH 7.7 after adding Oxford sialidase (Experiment 6); conditions: pH 7.7, 0.25 units sialidase
Description: After incubation, 0.25 units of Oxford sialidase in 50 microliters of 50 micromolar acetate buffer was added. Chemiluminescence was spontaneously produced, rising to a maximum of 1380 RLU at 3.25 minutes (see FIG. 10).

sialidase [3] = system: sialidase
Text: FIG. 12A is a graph showing chemiluminescence (RLU) as a function of sialidase dilution using a methylumbelliferyl-N-acetylneuraminic acid salt fluorescent substrate in a 0.05 M sodium acetate/0.1M NaCl buffer.
FIG. 12B is a graph showing signal to noise ratio (S/N) as a function of sialidase dilution for a methylumbelliferyl-N-acetylneuraminic acid salt fluorescent substrate in a 0.05 M sodium acetate/0.1M NaCl buffer.
The results and conditions are summarized in Table B and depicted graphically in FIGS. 12A and 12B.

sialidase [4] = system: sialidase; remark: listed apart in the source

COC1(c2ccc(Cl)c(O[C@]3(C(=O)[O-])C[C@H](O)[C@@H](NC(C)=O)[C@H]([C@H](O)[C@H](O)CO)O3)c2)OOC12C1CC3CC2CC(Cl)(C3)C1.[Na+] (stereo partly drawn) [dioxetane 489-102]
light peak after AMP pH 10 buffer (Oxford sialidase [1]; 0.025 units enzyme): 8860 RLU | light level at pH 5.5 (Oxford sialidase [1]; 0.025 units enzyme, 110 micromolar substrate): 56 RLU | light emission relative to no enzyme noise at pH 5.5 (Oxford sialidase [1]; 0.05 units sialidase): about 275 times | light spike after AMP pH 10 buffer (Oxford sialidase [1]; 0.05 units sialidase): greater than 10,000 RLU | steady light emission at pH 5.5 (Oxford sialidase [1]; 0.05 units sialidase, approximately 110 micromolar substrate, 37° C. 15 minutes): about 55 RLU | correlation of light emission at pH 5.5 with enzyme concentration (Oxford sialidase [1]; 0.05 versus 0.025 units): did not correlate with enzyme concentration | peak light emission after 0.1 AMP pH 10 injection (Oxford sialidase [1]; 0.1 units enzyme): greater than 10,000 RLU | light detected at pH 5.5 (Oxford sialidase [1]; 0.1 units enzyme, 10 microliters stock, 37° C. 15 minutes): 80 RLU | substrate consumption during the incubation time (Oxford sialidase [1]; 0.1 units enzyme, 37° C. 15 minutes): near complete substrate consumption | time of maximum chemiluminescence (Oxford sialidase [2]): 3.25 min | maximum chemiluminescence (Oxford sialidase [2]; 31.5° C.): 1380 RLU

Methylumbelliferyl-N-acetylneuraminic acid salt
RLU (sialidase [3]): 75078 RLU | S/N (sialidase [3]): 2.74 | RLU (sialidase [3]; dilution 1000): 4209078 RLU | S/N (sialidase [3]; dilution 1000): 153.62 | RLU (sialidase [3]; dilution 5000): 1171002 RLU | S/N (sialidase [3]; dilution 5000): 42.74 | RLU (sialidase [3]; dilution 25000): 263218 RLU | S/N (sialidase [3]; dilution 25000): 9.61 | RLU (sialidase [3]; dilution 625000): 32200 RLU | S/N (sialidase [3]; dilution 625000): 1.18 | RLU (sialidase [3]; dilution 3125000): 27538 RLU | S/N (sialidase [3]; dilution 3125000): 1.01 | RLU (sialidase [3]; dilution 15625000): 28231 RLU | S/N (sialidase [3]; dilution 15625000): 0.96 | sensitivity compared with neuraminidase-Star substrate (sialidase [4]): inferior sensitivity | signal-to-noise ratio (sialidase [4]; dilution of 1:40,000): 1.79
